Assay results: PubChem BioAssay (NCI)
Where “and” joins values, the source holds several entries; their conditions need not be identical. Equal values may be shown once.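 Each compound was tested at five concentrations against cells in 96-well plates for 48 hours. GI50 = concentration required for 50% inhibition of growth. At the TGI there is no net growth.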

Each molecule was assayed on RPMI-8226 leukemia (assay: DTP human tumour cell line panel, 48 h).
Molecule `c1ccc(C2=NNC3c4ccccc4-c4ccccc4N3C2)cc1` (centres undefined) has a TGI of 57.8 µM. Molecule `CN/N=C(/CCN1CCCC1)CC(c1ccccc1)c1c(O)c2ccccc2oc1=O` (centres undefined) has a TGI greater than 31.6 µM. `COc1ccc2c(c1)CCC1C3(CCCC21C)OCCO3` (centres undefined) gave a TGI of 61.2 µM. `COc1ccc(OC)c(/C=C/C(=O)N/N=C/c2ccc(Cl)cc2)c1` was tested, and the GI50 was 286 nM and the TGI was greater than 39.6 µM. `Cc1cc(C)nc(NS(=O)(=O)c2ccc(Nc3c4ccccc4nc4c(C(=O)Nc5ccc(S(=O)(=O)Nc6cc(C)on6)cc5)cccc34)cc2)n1` gave a TGI of 56.3 µM. Molecule `CCN(CC)c1sc(N(CC)CC)c2c1SSSSS2` has a GI50 of 366 nM and a TGI of 1.36 µM. For `COc1cc(C2=NN(C(C)=O)C(c3ccc(OC(C)=O)cc3OC(C)=O)O2)c(OC(C)=O)c2ccccc12` (centres undefined), the GI50 was 2740 nM and the TGI was 14.7 µM. In the case of `COc1cc(OC(=O)c2c(O)cc(O)c(O)c2C)cc(C)c1C(=O)Oc1cc(C)c(C(=O)O)c(O)c1`, the TGI was greater than 100 µM. Work on `COC(=O)Nc1nc2ccc(Oc3ccc(NC(=O)Nc4ccccc4)cc3)cc2[nH]1` yielded a GI50 of 748 nM and a TGI greater than 10 µM. With `CCN(CC)CCCC(C)Nc1c(C)cnc2cc(Cl)c(C)cc12` (centres undefined) the GI50 was 2380 nM and the TGI was 9.82 µM. `Cc1ccc2nc3c(C(=O)NCCN(C)C)cccc3nc2c1` gave a TGI of 40.8 µM.

What follows are molecules tested on SR leukemia (assay: DTP human tumour cell line panel, 48 h).
`C[N+](C)(C)CC1CCCC(C[N+](C)(C)C)C1=O` (centres undefined) gave a TGI of 0.479 µM. `CCCCCCCCCCCCCC1CCC(CC)N1` (centres undefined) gave a TGI of 40.6 µM. `COc1ccc2c(c1)C=C([N+](=O)[O-])C(C1OC(C)(C)OC1C1COC(C)(C)O1)O2` (centres undefined) showed a TGI of 6.93 µM. `CC(=O)OC1Oc2ccccc2-c2oc(=O)c(-c3cc4ccc(N(C)C)cc4oc3=O)cc21` (centres undefined) was tested, and the GI50 was 1750 nM and the TGI was 14.5 µM. `CCC1(O)C(=O)OCc2c1cc1n(c2=O)Cc2cc3ccc(C=O)cc3nc2-1` (centres undefined) showed a GI50 of 64.7 nM. For `CC1(C)C2CC(O)C1(C)CC2=O` (centres undefined), the TGI was greater than 100 µM. `COc1ccc2c(c1)C(=O)c1c-2n(CCCn2ccnc2)c(=O)c2ccccc12` was tested, and the GI50 was 76.5 nM and the TGI was 7.81 µM. `COc1cc2oc(-c3ccc(O)cc3)cc(=O)c2c(OC)c1OC` was tested, and the TGI was greater than 100 µM. `COc1ccc(N2C(=O)C3c4[nH]c5ccc(C)cc5c4C4CCC(C(C)(C)C)CC4C3C2=O)cc1` (centres undefined) showed a TGI of 32.4 µM. For `CC/C=C\C[C@@H]1C/C=C2/C(=O)C=C[C@H]2C/C=C\CCCC(=O)O1`, the GI50 was 170 nM and the TGI was 0.731 µM. In the case of `Cc1ccc(S(=O)(=O)n2c(-c3ccccc3)c(-c3ccccc3)c3ccccc32)cc1`, the TGI was greater than 100 µM. For `NC(=S)N/N=C/c1ccc(OC(=O)COc2ccc(Cl)cc2)cn1`, the GI50 was 498 nM and the TGI was greater than 100 µM. Work on `O=C(N/N=C/c1cccc(O)c1O)c1ccccc1` yielded a GI50 of 412 nM and a TGI greater than 76 µM. For `c1ccc(C2=NNC3c4ccccc4-c4ccccc4N3C2)cc1` (centres undefined), the TGI was 56.8 µM. For `CN/N=C(/CCN1CCCC1)CC(c1ccccc1)c1c(O)c2ccccc2oc1=O` (centres undefined), the TGI was greater than 100 µM. In the case of `COc1ccc2c(c1)CCC1C3(CCCC21C)OCCO3` (centres undefined), the TGI was 45.4 µM. Work on `COc1ccc(OC)c(/C=C/C(=O)N/N=C/c2ccc(Cl)cc2)c1` yielded a GI50 of 38.9 nM and a TGI of 16.4 µM. Work on `Cc1cc(C)nc(NS(=O)(=O)c2ccc(Nc3c4ccccc4nc4c(C(=O)Nc5ccc(S(=O)(=O)Nc6cc(C)on6)cc5)cccc34)cc2)n1` yielded a TGI of 81.6 µM. Molecule `CCN(CC)c1sc(N(CC)CC)c2c1SSSSS2` has a GI50 of 267 nM and a TGI of 0.998 µM. Molecule `COc1cc(C2=NN(C(C)=O)C(c3ccc(OC(C)=O)cc3OC(C)=O)O2)c(OC(C)=O)c2ccccc12` (centres undefined) has a GI50 of 537 nM and a TGI greater than 27.4 µM. In the case of `COc1cc(OC(=O)c2c(O)cc(O)c(O)c2C)cc(C)c1C(=O)Oc1cc(C)c(C(=O)O)c(O)c1`, the TGI was greater than 100 µM. `COC(=O)Nc1nc2ccc(Oc3ccc(NC(=O)Nc4ccccc4)cc3)cc2[nH]1` showed a GI50 of 74.4 nM and a TGI greater than 8.46 µM. With `CCN(CC)CCCC(C)Nc1c(C)cnc2cc(Cl)c(C)cc12` (centres undefined) the TGI was 3.17 µM. `Cc1ccc2nc3c(C(=O)NCCN(C)C)cccc3nc2c1` gave a TGI greater than 100 µM.

What follows are molecules tested on SF-268 CNS (assay: DTP human tumour cell line panel, 48 h).
In the case of `C[N+](C)(C)CC1CCCC(C[N+](C)(C)C)C1=O` (centres undefined), the TGI was 55.9 µM. Molecule `CCCCCCCCCCCCCC1CCC(CC)N1` (centres undefined) has a TGI of 22.4 µM. For `COc1ccc2c(c1)C=C([N+](=O)[O-])C(C1OC(C)(C)OC1C1COC(C)(C)O1)O2` (centres undefined), the TGI was 13.5 µM. Work on `CC(=O)OC1Oc2ccccc2-c2oc(=O)c(-c3cc4ccc(N(C)C)cc4oc3=O)cc21` (centres undefined) yielded a GI50 of 10600 nM and a TGI of 32.2 µM. With `CCC1(O)C(=O)OCc2c1cc1n(c2=O)Cc2cc3ccc(C=O)cc3nc2-1` (centres undefined) the GI50 was 376 nM and the TGI was 50 µM and 40 µM. `CC1(C)C2CC(O)C1(C)CC2=O` (centres undefined) showed a TGI greater than 100 µM. Work on `COc1ccc2c(c1)C(=O)c1c-2n(CCCn2ccnc2)c(=O)c2ccccc12` yielded a GI50 of 214 nM and a TGI greater than 25.3 µM. `COc1cc2oc(-c3ccc(O)cc3)cc(=O)c2c(OC)c1OC` gave a TGI greater than 100 µM. `COc1ccc(N2C(=O)C3c4[nH]c5ccc(C)cc5c4C4CCC(C(C)(C)C)CC4C3C2=O)cc1` (centres undefined) was tested, and the TGI was 64.5 µM. `CC/C=C\C[C@@H]1C/C=C2/C(=O)C=C[C@H]2C/C=C\CCCC(=O)O1` was tested, and the GI50 was 1340 nM and the TGI was 3.67 µM. With `Cc1ccc(S(=O)(=O)n2c(-c3ccccc3)c(-c3ccccc3)c3ccccc32)cc1` the TGI was greater than 100 µM. `NC(=S)N/N=C/c1ccc(OC(=O)COc2ccc(Cl)cc2)cn1` was tested, and the GI50 was 2280 nM and the TGI was 21.8 µM. `O=C(N/N=C/c1cccc(O)c1O)c1ccccc1` gave a GI50 of 567 nM and a TGI greater than 100 µM. For `c1ccc(C2=NNC3c4ccccc4-c4ccccc4N3C2)cc1` (centres undefined), the TGI was greater than 100 µM. For `CN/N=C(/CCN1CCCC1)CC(c1ccccc1)c1c(O)c2ccccc2oc1=O` (centres undefined), the TGI was greater than 100 µM. `COc1ccc2c(c1)CCC1C3(CCCC21C)OCCO3` (centres undefined) was tested, and the TGI was 19.9 µM. `COc1ccc(OC)c(/C=C/C(=O)N/N=C/c2ccc(Cl)cc2)c1` showed a GI50 of 235 nM and a TGI greater than 100 µM. `Cc1cc(C)nc(NS(=O)(=O)c2ccc(Nc3c4ccccc4nc4c(C(=O)Nc5ccc(S(=O)(=O)Nc6cc(C)on6)cc5)cccc34)cc2)n1` gave a TGI of 58 µM. Molecule `CCN(CC)c1sc(N(CC)CC)c2c1SSSSS2` has a GI50 of 1960 nM and a TGI of 4.53 µM. `COc1cc(C2=NN(C(C)=O)C(c3ccc(OC(C)=O)cc3OC(C)=O)O2)c(OC(C)=O)c2ccccc12` (centres undefined) showed a GI50 of 465 nM and a TGI greater than 24.4 µM. For `COc1cc(OC(=O)c2c(O)cc(O)c(O)c2C)cc(C)c1C(=O)Oc1cc(C)c(C(=O)O)c(O)c1`, the TGI was greater than 100 µM. `COC(=O)Nc1nc2ccc(Oc3ccc(NC(=O)Nc4ccccc4)cc3)cc2[nH]1` gave a GI50 of 267 nM and a TGI greater than 14.5 µM. Work on `CCN(CC)CCCC(C)Nc1c(C)cnc2cc(Cl)c(C)cc12` (centres undefined) yielded a GI50 of 15300 nM and a TGI of 33.3 µM.

These molecules were tested on K-562 leukemia (assay: DTP human tumour cell line panel, 48 h).
Work on `C[N+](C)(C)CC1CCCC(C[N+](C)(C)C)C1=O` (centres undefined) yielded a TGI of 2580 nM.
